Tests used:
Type in all cases: in vivo
[1] = tested on: pigweed (Amaranthus retroflexus); test: Test A greenhouse herbicide test, pre- and postemergence
Outline: (§1)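 Visual injury ratings, 0 (no effect) to 100 (complete control), versus untreated plants after roughly 10 d in a greenhouse. Compounds, formulated in a surfactant-containing non-phytotoxic solvent, were sprayed on loam–sand soil after sowing (pre) or on one- to two-leaf plants 2–10 cm tall (post).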

[2] = tested on: barnyardgrass (Echinochloa crus-galli); test: as above
Outline: as §1

[3] = tested on: wheat (Triticum aestivum); test: as above; conditions: Postemergence; for Wheat plant response rating: 0 to 100 scale, 0 is no effect, 100 is complete control
Outline: as §1

[4] = tested on: ragweed (common ragweed, Ambrosia elatior); test: as above
Outline: as §1

[5] = tested on: ryegrass, Italian (Italian ryegrass, Lolium multiflorum); test: as above
Outline: as §1

[6] = tested on: corn (Zea mays); test: as above; conditions: Postemergence; for Corn plant response rating: 0 to 100 scale, 0 is no effect, 100 is complete control
Outline: as §1

[7] = tested on: foxtail, giant (giant foxtail, Setaria faberii); test: as above
Outline: as §1

[8] = tested on: kochia (Kochia scoparia); test: as above
Outline: as §1

[9] = tested on: barnyardgrass (Echinochloa crus-galli); test: Test B flooded paddy test; conditions: 250 g ai/ha, Flood; visual rating on scale of 0 to 100 where 0 is no effect and 100 is complete control; 13 to 15 d after treatment
Outline: (§2)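 Ratings use a 0-100 visual scale, where 100 is complete control, and compare treated plants with controls after 13 to 15 d of greenhouse growth. Compound went straight into paddy water kept 3 cm over the soil surface, applied to seedlings at the 2-leaf stage.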

[10] = tested on: sedge, umbrella (small-flower umbrella sedge, Cyperus difformis); test: Test B flooded paddy test; conditions: 250 g ai/ha, Flood; visual rating on scale of 0 to 100 where 0 is no effect and 100 is complete control; 13 to 15 d after treatment
Outline: as §2

[11] = tested on: rice (Oryza sativa); test: Test B flooded paddy test; conditions: 250 g ai/ha, Flood; visual rating on scale of 0 to 100 where 0 is no effect and 100 is complete control; 13 to 15 d after treatment
Outline: as §2

[12] = tested on: ducksalad (Heteranthera limosa); test: Test B flooded paddy test; conditions: 250 g ai/ha, Flood; visual rating on scale of 0 to 100 where 0 is no effect and 100 is complete control; 13 to 15 d after treatment
Outline: as §2

[13] = tested on: galium (catchweed bedstraw, Galium aparine); test: Test A greenhouse herbicide test, postemergence; conditions: for Galium plant response rating: 0 to 100 scale, 0 is no effect, 100 is complete control
Outline: (§3)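 Seedlings in a loam soil and sand mix received formulated compound postemergence at the one- to two-leaf stage. Greenhouse holding lasts approximately 10 d, then injury is scored visually relative to untreated plants, 0 meaning no effect and 100 complete control.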

[14] = tested on: blackgrass (Alopecurus myosuroides); test: Test A greenhouse herbicide test, postemergence; conditions: for Blackgrass plant response rating: 0 to 100 scale, 0 is no effect, 100 is complete control
Outline: as §3

[15] = Postemergence, 125 g ai/ha, 0 to 100 scale where 0 is no effect and 100 is complete control
[16] = Postemergence, 500 g ai/ha, visual rating after approx. 10 d, 0 to 100 scale (0 no effect, 100 complete control)
[17] = Preemergence, 125 g ai/ha, 0 to 100 scale where 0 is no effect and 100 is complete control
[18] = Preemergence, 500 g ai/ha, 0 to 100 scale where 0 is no effect and 100 is complete control
[19] = 125 g ai/ha, 0 to 100 scale where 0 is no effect and 100 is complete control
[20] = 500 g ai/ha, visual rating after approx. 10 d, 0 to 100 scale (0 no effect, 100 complete control)
[21] = Postemergence, 125 g ai/ha, visual rating after approx. 10 d, 0 to 100 scale (0 no effect, 100 complete control)
[22] = Postemergence, 500 g ai/ha, 0 to 100 scale, 0 is no effect, 100 is complete control
[23] = Preemergence, 500 g ai/ha, 0 to 100 scale, 0 no effect, 100 complete control
[24] = 125 g ai/ha, visual rating after approx. 10 d, 0 to 100 scale (0 no effect, 100 complete control)

COC(=O)Oc1c(OC)nn(C)c(=O)c1-c1c(C)sc2ccc(Cl)cc12 [Compound 112]
Plant response rating, Pigweed [1, 15]: 20
Plant response rating, Pigweed [1, 16]: 30
Pigweed plant response rating [1, 17]: 90
Plant response rating, Pigweed [1, 18]: 100
Plant response rating, Barnyardgrass [2, 15]: 20
Plant response rating, Barnyardgrass [2, 16]: 20
Barnyardgrass plant response rating [2, 17]: 10
Plant response rating, Barnyardgrass [2, 18]: 20
Plant response rating, Wheat [3, 19]: 20
Plant response rating, Wheat [3, 20]: 30
Plant response rating, Ragweed [4, 15]: 60
Plant response rating, Ragweed [4, 16]: 80
Ragweed plant response rating [4, 17]: 40
Plant response rating, Ragweed [4, 18]: 80
Plant response rating, Ryegrass, Italian [5, 15]: 80
Plant response rating, Ryegrass, Italian [5, 16]: 100
Ryegrass, Italian plant response rating [5, 17]: 90
Plant response rating, Ryegrass, Italian [5, 18]: 100
Plant response rating, Corn [6, 19]: 0
Plant response rating, Corn [6, 20]: 30
Plant response rating, Foxtail, Giant [7, 15]: 20
Plant response rating, Foxtail, Giant [7, 16]: 50
Foxtail, Giant plant response rating [7, 17]: 50
Plant response rating, Foxtail, Giant [7, 18]: 60
Plant response rating, Kochia [8, 15]: 20
Plant response rating, Kochia [8, 16]: 30
Kochia plant response rating [8, 17]: 20
Plant response rating, Kochia [8, 18]: 80
Plant response rating, Barnyardgrass [9]: 0
Plant response rating, Sedge, Umbrella [10]: 0
Plant response rating, Rice [11]: 0
Plant response rating, Ducksalad [12]: 0
Plant response rating, Galium [13, 19]: 70
Plant response rating, Galium [13, 20]: 90
Plant response rating, Blackgrass [14, 19]: 40
Plant response rating, Blackgrass [14, 20]: 80

Cn1ncc(O)c(-c2ccc(F)c3ccccc23)c1=O [Compound 24]
Plant response rating, Pigweed [1, 21]: 70
Pigweed plant response rating [1, 22]: 90
Pigweed plant response rating [1, 17]: 70
Plant response rating, Pigweed [1, 23]: 90
Plant response rating, Barnyardgrass [2, 21]: 40
Barnyardgrass plant response rating [2, 22]: 50
Barnyardgrass plant response rating [2, 17]: 30
Plant response rating, Barnyardgrass [2, 23]: 60
Plant response rating, Wheat [3, 19]: 30
Wheat plant response rating ([3]; 500 g ai/ha): 70
Plant response rating, Ragweed [4, 21]: 30
Ragweed plant response rating [4, 22]: 60
Ragweed plant response rating [4, 17]: 0
Plant response rating, Ragweed [4, 23]: 0
Plant response rating, Ryegrass, Italian [5, 15]: 70
Ryegrass, Italian plant response rating [5, 22]: 90
Ryegrass, Italian plant response rating [5, 17]: 80
Plant response rating, Ryegrass, Italian [5, 23]: 80
Plant response rating, Corn [6, 24]: 0
Corn plant response rating ([6]; 500 g ai/ha): 0
Plant response rating, Foxtail, Giant [7, 21]: 10
Foxtail, Giant plant response rating [7, 22]: 60
Foxtail, Giant plant response rating [7, 17]: 60
Plant response rating, Foxtail, Giant [7, 23]: 80
Plant response rating, Kochia [8, 21]: 70
Kochia plant response rating [8, 22]: 80
Kochia plant response rating [8, 17]: 30
Plant response rating, Kochia [8, 23]: 50
Plant response rating, Barnyardgrass [9]: 0
Plant response rating, Sedge, Umbrella [10]: 0
Plant response rating, Rice [11]: 0
Plant response rating, Ducksalad [12]: 0
Plant response rating, Galium [13, 24]: 80
Galium plant response rating ([13]; 500 g ai/ha): 100
Plant response rating, Blackgrass [14, 24]: 30
Blackgrass plant response rating ([14]; 500 g ai/ha): 50

COc1ccc2sc(C)c(-c3c(O)c(C)nn(C)c3=O)c2c1 [Compound 53]
Plant response rating, Pigweed [1, 15]: 60
Pigweed plant response rating [1, 22]: 70
Pigweed plant response rating [1, 17]: 50
Plant response rating, Pigweed [1, 23]: 70
Plant response rating, Barnyardgrass [2, 15]: 0
Barnyardgrass plant response rating [2, 22]: 20
Barnyardgrass plant response rating [2, 17]: 0
Plant response rating, Barnyardgrass [2, 23]: 20
Plant response rating, Wheat [3, 19]: 0
Wheat plant response rating ([3]; 500 g ai/ha): 20
Plant response rating, Ragweed [4, 15]: 60
Ragweed plant response rating [4, 22]: 70
Ragweed plant response rating [4, 17]: 0
Plant response rating, Ragweed [4, 23]: 50
Plant response rating, Ryegrass, Italian [5, 15]: 40
Ryegrass, Italian plant response rating [5, 22]: 70
Ryegrass, Italian plant response rating [5, 17]: 10
Plant response rating, Ryegrass, Italian [5, 23]: 50
Plant response rating, Corn [6, 19]: 0
Corn plant response rating ([6]; 500 g ai/ha): 0
Plant response rating, Foxtail, Giant [7, 15]: 0
Foxtail, Giant plant response rating [7, 22]: 30
Foxtail, Giant plant response rating [7, 17]: 50
Plant response rating, Foxtail, Giant [7, 23]: 50
Plant response rating, Kochia [8, 15]: 70
Kochia plant response rating [8, 22]: 80
Kochia plant response rating [8, 17]: 50
Plant response rating, Kochia [8, 23]: 70
Plant response rating, Barnyardgrass [9]: 0
Plant response rating, Sedge, Umbrella [10]: 0
Plant response rating, Rice [11]: 0
Plant response rating, Ducksalad [12]: 0
Plant response rating, Galium [13, 19]: 60
Galium plant response rating ([13]; 500 g ai/ha): 80
Plant response rating, Blackgrass [14, 19]: 0
Blackgrass plant response rating ([14]; 500 g ai/ha): 30
